Test results from patent publication US6369251B1, “Method for purification of polyprenyl compounds” (Nikken Chemicals Co., Ltd., priority 1999, dated 2002).

Experiments:
hepatic carcinoma = settings: known from literature; cited from earlier work
[1] = Determination of peroxide value by the British Pharmacopeia method (iodometric titration); type: physicochemical; settings: sample after recrystallization; about 1 g sample, titration with sodium thiosulfate
Protocol: The results of purities and determined peroxide values of (2E, 4E, 6E, 10E)-3,7,11,15-tetramethyl-2,4,6,10,14-hexadecapentaenoic acid obtained in Example 1 and Reference Example 3 are shown in Table 1.
The determination of the peroxide values was performed by the method described in the British Pharmacopeia. About 1 g of each sample was accurately weighed in a stoppered Erlenmeyer flask, and the sample was added with chloroform (15 mL) and dissolved. The solution was added with acetic acid (20 mL), and the mixture was shaken gently. Air in the flask was sufficiently substituted with argon atmosphere, and the mixture was added with 1 mL of saturated potassium iodide solution prepared just before use, and the mixture was left stand for 10 minutes in a dark place. Then, the mixture was added with 30 mL of water and shaken vigorously. The liberated iodine was titrated with […] sodium thiosulfate solution (indicator: 2 mL of the starch test solution). The titration was terminated when the purplish red color of the solution disappeared. Correction was made by performing a blank test in the same manner.
The peroxide value was calculated by using the following equation.
Peroxide value (meq/kg)=10f(a−b)/Sampled weight (g) a: Titration volume (mL) of 0.01 mol/L Na2S2O3 solution b: Titration volume (mL) of 0.01 mol/L Na2S2O3 solution in the blank test f: Factor of 0.01 mol/L Na2S2O3 solution

SMILES | effect on recurrence of hepatic carcinoma (hepatic carcinoma) | Peroxide value [1]
CC(C)=CCC/C(C)=C/CC/C(C)=C/C=C/C(C)=C/C(=O)O [(2E, 4E, 6E, 10E)-3,7,11,15-Tetramethyl-2,4,6,10,14-hexadecapentaenoic acid] | suppressing effect on recurrence of hepatic carcinoma | –
CC(C)=CCC/C(C)=C/CC/C(C)=C/C=C/C(C)=C/C(=O)O [Example 1, (2E, 4E, 6E, 10E)-3,7,11,15-tetramethyl-2,4,6,10,14-hexadecapentaenoic acid] | – | 0 meq/kg
CC(C)=CCC/C(C)=C/CC/C(C)=C/C=C/C(C)=C/C(=O)O [Reference Example 3, (2E, 4E, 6E, 10E)-3,7,11,15-tetramethyl-2,4,6,10,14-hexadecapentaenoic acid] | – | 3.0 meq/kg
